Test results from patent US10087436B2, “Electrophysiologically mature cardiomyocytes and methods for making same” (The Regents of the University of California, priority 2014, dated 2018).

Test system: Ad-Kir2.1-silenced ventricular hESC-CMs
Experiment: Addition of the IK1 blocker Ba2+ to Ad-Kir2.1-silenced ventricular hESC-CMs (patch-clamp)
Assay type: cell-based, human
Conditions: 200 μM Ba2+
Experimental: HESC- and hiPSC-CMs were dissociated into single cells with 1 mg/ml collagenase II and plated on 0.1% gelatin-coated glass coverslips. Electrophysiological experiments were performed using whole-cell patch-clamp technique with an Axopatch 200B amplifier and the pClamp9.2 software (Axon Instruments Inc., Foster City, Calif.). Pipette solution was consisted of (mM): 110 K^+ aspartate, 20 KCl, 1 MgCl2, 0.1 Na-GTP, 5 Mg-ATP, 5 Na2-phospocreatine, 1 EGTA and 10 HEPES, with pH of 7.3. The external Tyrode's solution consisted of (mM): 140 NaCl, 5 KCl, 1 CaCl2, 1 MgCl2, 10 glucose, and 10 HEPES with pH of 7.4. Voltage- and current-clamp recordings were performed at 37° C. within 24 to 48 hours after adenovirus transduction. ESC-CMs were categorized into pacemaker, atrial or ventricular phenotypes based on the maximum diastolic potential (MDP), maximum rate of rise of the AP and AP duration (APD). […] Atrial cells with a triangular AP profile have a faster rate of rise than pacemaker cells, more hyperpolarized MDP or resting membrane potential (RMP), and intermediate APD. […] Different protocols as given in insets were employed to elicit the corresponding currents. […] All blockers were purchased from Sigma.

## [Ba+2] [Ba^2+]
  firing phenotype upon addition of Ba2+: spontaneously fired APs
